Experimental findings from the supplement of paper PMC10627819 are described below.

Experiment in all cases: Bliss interaction score (quartile over a dose matrix) (fitness difference); higher = more antagonism (negative = synergy)
In one assay the test system is B. subtilis 168. The method, boiled down: (§1)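 Combination data were used to infer fitness under each single drug. Fitness is the OD595 at entry into stationary phase divided by the robust mean of the plate's no-drug wells, with a cap of 1. The Bliss score is the observed minus the expected product fitness, summarised by quartiles over technical, biological and donor/recipient replicates.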

For a further assay, the system named is S. aureus DSM 20231. The method, boiled down:
as §1

For a further assay, the system named is S. aureus Newman. In short, it runs like this: as §1
The next assay has as its system S. pneumoniae D39V. In short, it runs like this:
as §1
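Further: first quartile when negative (synergy) and third quartile when positive (antagonism).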

Take `CC1(C)S[C@@H]2[C@H](NC(=O)Cc3ccccc3)C(=O)N2[C@H]1C(=O)O` [PenicillinG] + CCN(CC)CCOC(=O)c1ccc(N)cc1 [Procaine]: the Bliss interaction score in the assay with B. subtilis 168 is 0.0367; in the assay on S. aureus DSM 20231 it was -0.0657; in the assay on S. aureus Newman, 0.0542; in the assay with S. pneumoniae D39V, 0.0857.

Take `CC1(C)S[C@@H]2[C@H](NC(=O)Cc3ccccc3)C(=O)N2[C@H]1C(=O)O` [PenicillinG] + CC[C@H]1OC(=O)[C@H](C)C(=O)[C@H](C)[C@@H](O[C@@H]2O[C@H](C)C[C@H](N(C)C)[C@H]2O)[C@](C)(OC)C[C@@H](C)C(=O)[C@H](C)[C@H]2N(CCCCn3cnc(-c4cccnc4)c3)C(=O)O[C@]12C [Telithromycin]: the Bliss interaction score in the assay with B. subtilis 168 was 0.0511; in the assay on S. aureus DSM 20231, 0.0277; in the assay on S. aureus Newman it was -0.0465; in the assay with S. pneumoniae D39V, 0.0452.

Consider `CC1(C)S[C@@H]2[C@H](NC(=O)Cc3ccccc3)C(=O)N2[C@H]1C(=O)O` [PenicillinG] + CN1C2=CC=CC=C2N=C3C1=CC=CC3=O [Pyocyanin], for which the Bliss interaction score in the assay with B. subtilis 168 was -0.0227; in the assay on S. aureus DSM 20231, 0.0541; with S. aureus Newman, 0.0699; in the assay with S. pneumoniae D39V, 0.144.

Take `CC1(C)S[C@@H]2[C@H](NC(=O)Cc3ccccc3)C(=O)N2[C@H]1C(=O)O` [PenicillinG] + CN(C)c1cc(NC(=O)CNC(C)(C)C)c(O)c2c1C[C@H]1C[C@H]3[C@H](N(C)C)C(O)=C(C(N)=O)C(=O)[C@@]3(O)C(O)=C1C2=O [Tigecycline]: the Bliss interaction score in the assay with B. subtilis 168 was 0.0408; in the assay on S. aureus DSM 20231, -0.0277; in the assay with S. aureus Newman, 0.0515; in the assay on S. pneumoniae D39V, -0.103.

For `CC1(C)S[C@@H]2[C@H](NC(=O)Cc3ccccc3)C(=O)N2[C@H]1C(=O)O` [PenicillinG] + CN(N=O)C(=O)N[C@@H](C=O)[C@@H](O)[C@H](O)[C@H](O)CO [Streptozotocin], the Bliss interaction score was 0.0513 in the assay with B. subtilis 168, -0.0545 in the assay on S. aureus DSM 20231, -0.0606 in the assay on S. aureus Newman and 0.0394 in the assay on S. pneumoniae D39V.

`CC1(C)S[C@@H]2[C@H](NC(=O)Cc3ccccc3)C(=O)N2[C@H]1C(=O)O` [PenicillinG] + CN[C@@H]1[C@H](O)[C@H](NC)[C@H]2O[C@@]3(O)C(=O)C[C@@H](C)O[C@H]3O[C@@H]2[C@H]1O [Spectinomycin]: the Bliss interaction score is 0.0272 in the assay on B. subtilis 168, -0.0365 in the assay on S. aureus DSM 20231, -0.0496 with S. aureus Newman and 0.0325 in the assay on S. pneumoniae D39V.

For the compound `CC1(C)S[C@@H]2[C@H](NC(=O)Cc3ccccc3)C(=O)N2[C@H]1C(=O)O` [PenicillinG] + CN[C@@H]1[C@H](O[C@H]2[C@H](O[C@H]3[C@H](O)[C@@H](O)[C@H](N=C(N)N)[C@@H](O)[C@@H]3N=C(N)N)O[C@@H](C)[C@]2(O)C=O)O[C@@H](CO)[C@H](O)[C@H]1O [Streptomycin], the Bliss interaction score with B. subtilis 168 is 0.0319; in the assay with S. aureus DSM 20231, -0.0333; with S. aureus Newman, -0.0403; in the assay with S. pneumoniae D39V, -0.119.

Consider `CC1(C)S[C@@H]2[C@H](NC(=O)Cc3ccccc3)C(=O)N2[C@H]1C(=O)O` [PenicillinG] + CN[C@H](CC(C)C)C(=O)N[C@H]1C(=O)N[C@@H](CC(N)=O)C(=O)N[C@H]2C(=O)N[C@H]3C(=O)N[C@H](C(=O)N[C@H](C(=O)O)c4cc(O)cc(O)c4-c4cc3ccc4O)[C@H](O)c3ccc(c(Cl)c3)Oc3cc2cc(c3O[C@@H]2O[C@H](CO)[C@@H](O)[C@H](O)[C@H]2O[C@H]2C[C@](C)(N)[C@H](O)[C@H](C)O2)Oc2ccc(cc2Cl)[C@H]1O [Vancomycin], for which the Bliss interaction score in the assay on B. subtilis 168 is -0.039; in the assay on S. aureus DSM 20231, -0.0205; with S. aureus Newman, 0.0603; with S. pneumoniae D39V it was -0.162.

In the case of `CC1(C)S[C@@H]2[C@H](NC(=O)Cc3ccccc3)C(=O)N2[C@H]1C(=O)O` [PenicillinG] + CO[C@H]1/C=C/O[C@@]2(C)Oc3c(C)c(O)c4c(O)c(c(/C=N/N5CCN(C)CC5)c(O)c4c3C2=O)NC(=O)/C(C)=C\C=C\[C@H](C)[C@H](O)[C@@H](C)[C@@H](O)[C@@H](C)[C@H](OC(C)=O)[C@@H]1C [Rifampicin], the Bliss interaction score was 0.0761 with B. subtilis 168, 0.036 in the assay on S. aureus DSM 20231, 0.0252 in the assay on S. aureus Newman and -0.112 in the assay with S. pneumoniae D39V.

On to `CC1(C)S[C@@H]2[C@H](NC(=O)Cc3ccccc3)C(=O)N2[C@H]1C(=O)O` [PenicillinG] + COc1cc(Cc2cnc(N)nc2N)cc(OC)c1OC [Trimethoprim], for which the Bliss interaction score in the assay with B. subtilis 168 was -0.131; in the assay on S. aureus DSM 20231 it was -0.0299; with S. aureus Newman, -0.0822; in the assay with S. pneumoniae D39V it was 0.101.

For `CC1(C)S[C@@H]2[C@H](NC(=O)Cc3ccccc3)C(=O)N2[C@H]1C(=O)O` [PenicillinG] + COc1ccc(C[C@H](N)C(=O)N[C@H]2[C@@H](O)[C@H](n3cnc4c(N(C)C)ncnc43)O[C@@H]2CO)cc1 [Puromycin], the Bliss interaction score in the assay with B. subtilis 168 is 0.0536; with S. aureus DSM 20231, -0.0369; in the assay with S. aureus Newman it was 0.0759; in the assay on S. pneumoniae D39V, 0.0834.

Turning to `CC1(C)S[C@@H]2[C@H](NC(=O)Cc3ccccc3)C(=O)N2[C@H]1C(=O)O` [PenicillinG] + Cc1cc(NS(=O)(=O)c2ccc(N)cc2)no1 [Sulfamethoxazol], the Bliss interaction score was 0.0445 in the assay with B. subtilis 168, -0.0626 in the assay with S. aureus DSM 20231, 0.0475 with S. aureus Newman and -0.0954 in the assay on S. pneumoniae D39V.

As for `CC1(C)S[C@@H]2[C@H](NC(=O)Cc3ccccc3)C(=O)N2[C@H]1C(=O)O` [PenicillinG] + Cn1nnc(-c2ccc(-c3ccc(N4C[C@H](CO)OC4=O)cc3F)cn2)n1 [Tedizolid], the Bliss interaction score was 0.0625 in the assay with B. subtilis 168, 0.057 in the assay with S. aureus DSM 20231, -0.0888 in the assay with S. aureus Newman and 0.106 in the assay with S. pneumoniae D39V.

Take `CC1(C)S[C@@H]2[C@H](NC(=O)Cc3ccccc3)C(=O)N2[C@H]1C(=O)O` [PenicillinG] + Oc1cc(Cl)ccc1Oc1ccc(Cl)cc1Cl [Triclosan]: the Bliss interaction score in the assay with B. subtilis 168 amounted to 0.0307; in the assay with S. aureus DSM 20231, 0.0254; with S. aureus Newman it was 0.0326; in the assay with S. pneumoniae D39V it was 0.0767.

For the compound `COc1ccc(C[C@H](N)C(=O)N[C@H]2[C@@H](O)[C@H](n3cnc4c(N(C)C)ncnc43)O[C@@H]2CO)cc1` [Puromycin] + CC[C@H]1OC(=O)[C@H](C)C(=O)[C@H](C)[C@@H](O[C@@H]2O[C@H](C)C[C@H](N(C)C)[C@H]2O)[C@](C)(OC)C[C@@H](C)C(=O)[C@H](C)[C@H]2N(CCCCn3cnc(-c4cccnc4)c3)C(=O)O[C@]12C [Telithromycin], the Bliss interaction score with B. subtilis 168 is 0.0276; in the assay on S. aureus DSM 20231, 0.045; with S. aureus Newman, -0.0571; in the assay with S. pneumoniae D39V, -0.0651.

For `COc1ccc(C[C@H](N)C(=O)N[C@H]2[C@@H](O)[C@H](n3cnc4c(N(C)C)ncnc43)O[C@@H]2CO)cc1` [Puromycin] + Oc1cc(Cl)ccc1Oc1ccc(Cl)cc1Cl [Triclosan], the Bliss interaction score in the assay with B. subtilis 168 was 0.0476; in the assay on S. aureus DSM 20231 it was 0.0973; in the assay with S. aureus Newman, 0.0281; with S. pneumoniae D39V, 0.102.

As for `CN(C)c1cc(NC(=O)CNC(C)(C)C)c(O)c2c1C[C@H]1C[C@H]3[C@H](N(C)C)C(O)=C(C(N)=O)C(=O)[C@@]3(O)C(O)=C1C2=O` [Tigecycline] + Oc1cc(Cl)ccc1Oc1ccc(Cl)cc1Cl [Triclosan], the Bliss interaction score with B. subtilis 168 was found to be 0.0719; with S. aureus DSM 20231 it was 0.101; with S. aureus Newman, 0.0252; in the assay with S. pneumoniae D39V, 0.0471.
